In article PMC3485228, “Structure-Based Engineering Increased the Catalytic Turnover Rate of a Novel Phenazine Prenyltransferase” (PLoS ONE, 2012):

Biological target: T1, EpzP (Streptomyces virginiae, UniProt E5KWG9)
T1 construct: pET28a His6-tag, E. coli Rosetta2; tag thrombin-cleaved for structures (EpzPm: lysines reductively methylated, 18 of 19)
T1 sequence (E5KWG9 1-302): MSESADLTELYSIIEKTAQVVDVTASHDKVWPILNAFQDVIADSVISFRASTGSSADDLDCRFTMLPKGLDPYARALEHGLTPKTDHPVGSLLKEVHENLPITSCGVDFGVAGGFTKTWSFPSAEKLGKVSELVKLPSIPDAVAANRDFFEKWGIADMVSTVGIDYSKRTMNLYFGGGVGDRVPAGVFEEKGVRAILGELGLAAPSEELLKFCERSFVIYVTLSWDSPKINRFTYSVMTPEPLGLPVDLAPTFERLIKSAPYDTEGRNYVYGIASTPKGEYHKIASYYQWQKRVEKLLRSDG
Assay: X-ray crystal structure ([…] A)
Assay type: binding
Conditions: lysine-methylated EpzP; crystal soaked with 5 mM DMSPP, hydrolysed to SPP; diphosphate site; acidic pH

SMILES: O=P(O)(O)OP(=O)(O)S (stereo not shown) [S-thiolodiphosphate]
- X-ray crystal structure (1.67 A): revealed the presence of a S-thiolodiphosphate (SPP) moiety in the diphosphate binding site
